Measured values reported in patent US20220162215A1, “COMPOSITIONS AND METHODS OF USING THE SAME FOR TREATMENT OF NEURODEGENERATIVE AND MITOCHONDRIAL DISEASE” (MITOKININ, INC., priority 2019, published 2022).
Where two headings read alike, the source gives them in different places.

Columns and labels:
[1] = Tissue distribution, mouse; assay type: in vivo
Experimental: Referring to Tables 8A-C below, an in vivo summary of EP-0035985 IV at 1 mg/kg (8A), PO 10 mg/kg (8B), and a tissue distribution, mouse (8C) is shown below.

PINK1/parkin pathway = experiment: Parkin recruitment to mitochondria, live cell imaging; assay type: cell-based, human; conditions: PINK1wt vs PINK1ko cells, FIG. 18
Experimental: When the PINK1/parkin pathway is activated by FCCP, PINK1 is stabilized on the mitochondrial membrane, and its activity leads to the recruitment of parkin to the mitochondria (Narendra et al., PLoS Biol 2010; Narendra et al., J. Cell Biol 2008; Vives-Bauza et al., PNAS 2009). The aim of this assay is to test how MTK compounds affect the speed of parkin recruitment to the mitochondria. Briefly, HeLa-MKYP cells were plated at 7,000 cells/well in 96-well plates along with compounds at various concentrations. Following 16 hours of incubation, cells were treated in phenol-free media with 1 μM FCCP/oligomycin (F/O) along with compounds at various doses for 2-3 hours. Immediately following addition of new media, the cell treatment plate was transferred to a CO2 and temperature-regulated chamber in a high-content imaging microscope [Molecular Devices], to acquire images from live cells at regular intervals during the treatment timecourse. Appropriate controls were included on each plate to obtain a maximum signal from treatment with 2 μM F/O, or a minimum signal from cells treated with no F/O with DMSO for each cell type tested (HeLa-MKYP WT or PINK1^KO). Images were analyzed using MetaExpress 6 software package, and automatically processed after setting thresholds to define overlap between the YFP-parkin signal and red mitochondrial signal based on controls. […]

HeLa MKYP cells = experiment: Toxicity / cell death measured by DAPI staining (take-up); assay type: cell-based
Experimental: H2O2 treatment was performed as a control for cell death as measured by DAPI staining.
Briefly, HeLa MKYP cells were plated at 10,000 cells/well in 96 well plates along with compounds at various concentrations. Following 16 hrs of incubation, cells were treated with 1 uM FCCP/oligomycin for 6 hours, then analyzed via FACS for the presence of mitochondria in lysosomes (as determined by an emissions spectrum shift from the pH-sensitive mtKeima tag).

GDF15 = experiment: Cisplatin mouse model of mitochondrial dysfunction (GDF15 qPCR, kidney); assay type: in vivo, mice; conditions: oral dosing; i.p. cisplatin; FIG. 34
From the text: Cisplatin is a chemotherapeutic agent reported in the literature to induce mitochondrial damage (see: Yang, Z., et al. “Cisplatin Preferentially Binds Mitochondrial DNA and Voltage-Dependent Anion Channel Protein in the Mitochondrial Membrane of Head and Neck Squamous Cell Carcinoma: Possible Role in Apoptosis.” Clinical Cancer Research 12, no. 19 (2006), 5817-5825). Growth and Differentiation Factor 15 (GDF15) is an established biomarker of mitochondrial disease and certain neurodegenerative diseases (see: Montero, R, et al. “GDF-15 Is Elevated in Children with Mitochondrial Diseases and Is Induced by Mitochondrial Dysfunction.” PLOS ONE 11, no. 2 (2016); Nohara, S, et al. “GDF-15, a mitochondrial disease biomarker, is associated with the severity of multiple sclerosis”, Journal of Neurological Sciences, Vol 405 (2019)). Briefly, mice approximately 10 weeks in age were challenged with a single intraperitoneal dose of cisplatin (10 mg/kg), then treated daily via oral gavage with either compound 35985 at various doses or vehicle control. On day 7, the animals were sacrificed. Kidneys were removed and homogenized. Following published methods, qPCR was performed on the kidney samples to determine expression levels of GDF15.

mitotoxicity = experiment: Mitotox safety margin (therapeutic window); assay type: cell-based
pS129 α-synuclein = pS129 α-synuclein in human iPSC derived neurons; assay type: cell-based; conditions: FIG. 21

## FC(F)(F)c1cc2c(NC3CCCc4ccccc43)ncnc2[nH]1 (stereo not drawn) [Compound 15]
[1]; brain, dose 10 mg/kg, read-out: Brain 0.5 h
  concentration at 0.5 h: 526 ng/g
[1]; brain, dose 10 mg/kg, read-out: Brain 1 h
  concentration at 1 h: 737 ng/g
[1]; brain, dose 10 mg/kg, read-out: Brain 2 h
  concentration at 2 h: 435 ng/g
[1]; brain, dose 50 mg/kg, read-out: Brain 0.5 h
  concentration at 0.5 h: 3340 ng/g
[1]; brain, dose 50 mg/kg, read-out: Brain 1 h
  concentration at 1 h: 6370 ng/g
[1]; brain, dose 50 mg/kg, read-out: Brain 2 h
  concentration at 2 h: 3980 ng/g
[1]; kidney, dose 10 mg/kg, read-out: Kidney 0.5
  concentration at 0.5 h: 1050 ng/g
[1]; kidney, dose 10 mg/kg, read-out: Kidney 1
  concentration at 1 h: 1290 ng/g
[1]; kidney, dose 10 mg/kg, read-out: Kidney 2
  concentration at 2 h: 893 ng/g
[1]; kidney, dose 50 mg/kg, read-out: Kidney 0.5
  concentration at 0.5 h: 6430 ng/g
[1]; kidney, dose 50 mg/kg, read-out: Kidney 1
  concentration at 1 h: 11500 ng/g
[1]; kidney, dose 50 mg/kg, read-out: Kidney 2
  concentration at 2 h: 7480 ng/g
[1]; plasma, dose 10 mg/kg, read-out: Plasma 0.5 h
  concentration at 0.5 h: 372 ng/g
[1]; plasma, dose 10 mg/kg, read-out: Plasma 1 h
  concentration at 1 h: 276 ng/g
[1]; plasma, dose 10 mg/kg, read-out: Plasma 2 h
  concentration at 2 h: 146 ng/g
[1]; plasma, dose 50 mg/kg, read-out: Plasma 0.5 h
  concentration at 0.5 h: 1900 ng/g
[1]; plasma, dose 50 mg/kg, read-out: Plasma 1 h
  concentration at 1 h: 2080 ng/g
[1]; plasma, dose 50 mg/kg, read-out: Plasma 2 h
  concentration at 2 h: 1420 ng/g
PINK1/parkin pathway
  rate of Parkin recruitment: increases the rate of Parkin recruitment in PINK1^wt but not PINK1^ko cells
HeLa MKYP cells; Table 2
  Toxicity (% positive for DAPI takeup @ 50 μM): 2.1%
HeLa MKYP cells; Table 3 Supplement B, 25 uM compound, 1 uM FO
  Max cell death at 25 uM compound, 1 uM FO: 10.7%
HeLa MKYP cells; Table 3 Supplement B, 25 μM, no FO
  Cell death at 25 μM (no FO): 2.59%
HeLa MKYP cells; Table 4
  Toxicity (% positive for DAPI takeup @ 50 μM): 2.4%
GDF15
  expression of mitochondrial disease marker GDF15: reduces expression of mitochondrial disease marker GDF15
mitotoxicity; class of the Ratio
  Mitotox safety margin (Therapeutic window): ++++ (ratio 30<)
mitotoxicity; highest concentration with no observable mitotoxicity (μM) divided by the EC50 (μM) of the compound
  Ratio**: 40.02
pS129 α-synuclein
  pS129 α-synuclein: significantly reduces pS129 α-synuclein
